From patent publication US4250259A, “Microbiological production of ketones from C3 -C6 secondary alcohols” (priority 1979, dated 1981)
Entries after “also recorded” stand apart in the source; their conditions may differ.

Columns and labels:
[1] = tested on: cell suspensions of C1-utilizers; experiment: studies on production of 2-butanone from 2-butanol by cell suspensions of the strains tested; format: cell-based; conditions: for inhibition of production of 2-butanone from 2-butanol by cell suspensions: strains tested
Description: The following summarizes tests conducted on the optimal conditions for the production of methyl ketones from C3 -C6 sec. alcohols.
The substrate specificity for the oxidation of C3 -C6 secondary alcohols by the strains of C1 -utilizers was studied.

[2] = tested on: cell-free particulate fractions of methane-grown methylotrophs; experiment: inhibitors and electron donors of n-alkane conversion to sec. alcohols by cell-free particulate fractions; format: biochemical
Description: The conditions for preparing the cell suspensions or the cell-free particulate fractions from methane-grown methylotroph microorganisms is the same as described above.

[3] = tested on: purified secondary alcohol dehydrogenase (SADH); experiment: inhibition of purified SADH by metal-chelating agents, thioreagents, metals; format: biochemical, Pseudomonas sp. ATCC 21439; conditions: for % inhibition of SADH activity: each inhibitor at a final concentration of 1 mM, measured spectrofluorometrically
Protocol: Secondary alcohol dehydrogenase (SADH) from an obligate methanol utilizer, Pseudomonas sp. ATCC 21439 was purified as follows. […] 0.05 M sodium phosphate buffer, pH 7.0 with 0.5 mM dithiothretol (buffer A) and were disrupted sonically (5×1 min.). The crude extract was separated by centrifugation. The crude extract was heat-treated at 50° C. in a water bath for 10 minutes. The resulting precipitate was removed by centrifugation. To the supernatant solution, 25 ml of protamine sulfate solution (2% solution in 0.1 M Tris base) was added dropwise with continuous stirring. After standing for 30 minutes, the extract was centrifuged. The supernatant solution was fractionated with solid ammonium sulfate. […] This DEAE-cellulose eluate was concentrated by ammonium sulfate fractionation. Material precipitating between 30 and 50% ammonium sulfate saturation was collected by centrifugation and dialyzed overnight against A. This fraction was further washed and filtered through an Amicon unit with XM 50 membrane. The concentrated fraction (6 ml) inside the Amicon unit was applied to an Affi-Gel Blue column (0.8 cm×18 cm) which had been equilibrated with buffer A for affinity chromatography. The column was washed overnight with buffer A (0.18 ml./min.) and then was eluted with buffer A containing 5 mM NAD. Each 1 ml. fraction was collected.
The purified secondary alcohol dehydrogenase enzyme (SADH) may be used directly for converting C3 -C6 secondary alcohols to the corresponding methyl ketones by the procedures described above; however, a source of NAD^+ must be added to the reaction medium. One can determine the NAD-linked secondary alcohol dehydrogenase activity with a fluorescence spectrophotometer (Perkin Elmer, Model MPF 44A) by following the formation of reduced NAD (Ex 340 nm, Em 460 nm). The assay system (3 ml.) will typically contain: sodium phosphate buffer pH 7.0, 150 μmol; NAD 1.0 μmol; a given amount of enzyme preparation; and 20 μmol secondary alcohol. The reaction is started by the addition of secondary alcohol. One unit of SADH enzyme activity represents the reduction of one nmole NAD per minute.
The effect of metal-chelating agents and thioreagents on the activity of the purified SADH enzyme were studied. […] The possibility of ethanol or n-propanol as an inhibitor was studied.

[4] = tested on: purified secondary alcohol dehydrogenase; experiment: inhibition of purified yeast SADH; format: biochemical, Pichia sp. NRRL Y-11,328; conditions: primary alcohols tested at 10^-3 M
Protocol: Large scale cultures of Pichia sp. NRRL Y-11,328 were grown with aeration at 30° C. in a 14-liter New Brunswick f fermentor in a mineral salt medium containing methanol (0.4%, v/v) as the sole carbon source. The cells (200 g., wet weight) were suspended in […] sodium phosphate buffer, pH 7.0, containing 1 mM dithiothreitol (buffer A), and crude extracts were prepared as described previously. To the crude extracts, 18 ml. of protamine sulfate solution [2% solution in 0.1 M tris (hydroxymethyl) aminomethane (tris) base] was added dropwise with continuous stirring. After standing for 30 min., the extracts were centrifuged at 20,000× g. for 60 min. The supernatant solution was fractionated with solid ammonium sulfate. Extracts were brought to 50% of saturation with respect to ammonium sulfate by addition of 313 g. of the salt per liter of extract. Precipitated proteins was removed by centrifugation, and 137 g. of ammonium sulfate was added per liter of the supernatant liquid to bring it to 70% of saturation. Material precipitating between 50 and 70% of saturation was collected by centrifugation and dissolved in buffer A. This preparation was dialyzed overnight against buffer A, and the dialyzed material was applied to a DEAE-cellulose column (5×40 cm) that had been equilibrated with buffer A. The sample was washed with 200 ml. of buffer A and eluted with 2 liters of buffer A that contained NaCl in a linear gradient running from a concentration of 0 to 0.5 M. Fractions of 15 ml. were collected. Fractions containing secondary alcohol dehydrogenase activity were pooled and were termed DEAE-cellulose eluate. The DEAE-cellulose eluate was concentrated by ammonium sulfate fractionation.
Secondary alcohol dehydrogenase activity was measured spectrophotometrically at 340 nm with a NAD^+ as an electron acceptor. The reaction mixture, in a total 3.0 ml., contained 50 mM phosphate buffer, pH 8.0, 5 μmoles NAD^+, crude extracts, and substrate. The reactions were started by addition of 100 μl of 0.1 M substrate and the rate of NAD^+ reduction was measured. Protein concentration was determined by the method of Lowry et al.
Various primary alcohols not oxidized by secondary alcohol dehydrogenase were tested as potential inhibitors of enzyme activity.

[5] = tested on: cell-free extracts of strain ATCC 21439; experiment: stoichiometry of production of 2-butanone from 2-butanol by cell-free extracts (Table IX); format: biochemical, Pseudomonas sp. ATCC 21,439; conditions: for NAD Consumed: fluorescence spectrophotometrically
Protocol: The reaction mixtures 3 ml (1.0 mg protein) were incubated at 30°
^(a) Determined gas chromatographically.
^(b) Determined fluorescence spectrophotometrically.
consumption of NAD was corrected.

[6] = tested on: cell-free SADH system; experiment: cofactor requirement of the cell-free SADH systems; format: biochemical; conditions: cell-free systems tested
Protocol: To prepare the cell-free secondary alcohol dehydrogenase (SADH) system, the washed cells were disrupted with a Wave Energy Ultrasonic Oscillator, Model W201 (Wave Energy System, Inc., Newtown, Pa.) and centrifuged at 20,000×g. for 30 minutes. […] The enzyme activity was measured with a fluorescence spectrophotometer (Perkin Elmer, Model MPF 44A) by following the formation of reduced NAD (EX 340 nm, Em 460 nm). The formation of reduced NAD was also followed with an absorption spectrophotometer at 340 nm. The assay system (3 ml.) contained: potassium phosphate buffer pH 7.0; 150 μmol.; NAD 1 μmol.; a given amount of enzyme preparation; and secondary alcohol 10 μmol. The reaction was started by the addition of substrate. One unit of enzyme activity represents the reduction of one μmole NAD per minute. Protein concentrations were determined by the Lowry method (J. Biol. Chem., 193: 255-275 (1951)).

[7] = tested on: purified secondary alcohol dehydrogenase; experiment: substrate specificity, electron acceptor and stoichiometry of purified yeast SADH
[8] = tested on: Methylococcus capsulatus Texas (ATCC 19069); experiment: n-alkanes to methyl ketones by resting cell suspensions (Table I); format: cell-based; conditions: cells grown on methane; 30° C.
Protocol: (§1) The pH of the nutrient medium was adjusted to 7.0 by the addition of acid or base and 50 ml. samples of the nutrient medium were charged into a plurality of 300 ml. shaker flasks. […] The isolates had been maintained on methanol (0.4% V/V) agar plates or on agar plates under an atmosphere of methane and air having a 1:1 V/V gas ratio which had been transferred every two weeks. For growth on methanol, the medium was supplemented with 0.4% methanol. For growth on methane, the gaseous phase of the inoculated flasks was replaced with a gas mixture comprised of methane and air having a ratio of 1:1 on a V/V basis. The inoculated flasks were sealed air-tight and were incubated on a rotary shaker of orbital radius 2.5 cm. at 250 rpm and at 30° C. for two days until turbidity in the medium had developed. The cells were harvested by centrifugation at 10,000×g. at 4° C. for 30 minutes. The cell pellet was washed twice with a 0.05 M phosphate buffer at a pH of 7.0 (containing 0.02 M MgCl2). The washed cells were then suspended in a 0.05 M phosphate buffer at pH 7.0.
(§2) A 0.5 ml. sample of each washed cell suspension (2 mg. cells) was put into 10 ml. vials at 4° C. which were sealed with a rubber cap. The gaseous phase of the vials was removed with vacuum and then was replaced with a gas mixture of the substrate reactant (i.e., alkane or secondary alcohol) and oxygen at a 1:1 V/V ratio. (In the case of a liquid substrate, i.e., secondary alcohol, 10 μl of the substrate was put in the 10 ml. vials). The vials were then incubated at 30° C. on a rotary shaker at 300 rpm. Samples of product (1-3 μl) were withdrawn periodically with a microsyringe and the products were analyzed by gas chromatography (ionization flame detector column).

[9] = tested on: Methylomonas methanica SI (NRRL B-11,199); experiment: as above; format: cell-based; conditions: cells grown on methane; 30° C.
Protocol: as §1, §2

[10] = tested on: Methylosinus trichosporium OB3b (NRRL B-11,196); experiment: as above; format: cell-based; conditions: cells grown on methane; 30° C.
Protocol: as §1, §2

[11] = tested on: Methylocystis parvus OBBP (NRRL B-11,198); experiment: as above; format: cell-based; conditions: cells grown on methane; 30° C.
Protocol: as §1, §2

[12] = tested on: Methylobacterium organophilum XX; experiment: as above; format: cell-based; conditions: cells grown on methane; 30° C.
Protocol: as §1, §2

[13] = tested on: Methylobacter capsulatus Y (NRRL B-11,201); experiment: as above; format: cell-based; conditions: cells grown on methane; 30° C.
Protocol: as §1, §2

[14] = tested on: Methylococcus capsulatus (Texas, ATCC 19,069); experiment: n-alkanes to secondary alcohols by cell suspensions (Table XVI); format: cell-based; conditions: Growth Substrate Methane
Description: (§3) Both cell suspensions (particulate fraction) and cell-free particulate fraction of methane-grown methylotroph microorganisms are capable of catalyzing the conversion of C3 -C6 n-alkanes to the corresponding alcohols including secondary alcohols. The conditions for preparing the cell suspensions or the cell-free particulate fractions from methane-grown methylotroph microorganisms is the same as described above. The cell-free particulate fraction requires the presence of oxygen and NADH as an electron donor. […] Tables XVI and XVII show the conversion of C3 -C6 n-alkanes to the corresponding secondary alcohols using cell suspensions and cell-free particulate fractions, respectively, of methane-grown methylotroph microorganisms.
(§4) ^(a) The product secondary alcohols were identified and estimated by […]

[15] = tested on: Methylosinus trichosporium (OB3b, NRRL-B-11,196); experiment: as above; format: cell-based; conditions: Growth Substrate Methane
Description: as §3, §4

[16] = tested on: Methylobacterium sp. (CRL-26, NRRL-B-11,208); experiment: as above; format: cell-based; conditions: Growth Substrate Methane
Description: as §3, §4

Compound: c1cnc2c(c1)ccc1cccnc12 [1,10-phenanthroline]
- inhibition of production of 2-butanone from 2-butanol by cell suspensions [1]: inhibited
- inhibition of conversion of n-alkanes to sec. alcohols (words) [2]: inhibited
- % inhibition of SADH activity [3]: 95%
- inhibition of purified yeast secondary alcohol dehydrogenase activity [4]: strongly inhibited

Compound: CCC(C)=O [2-butanone]
- further oxidation / degradation of 2-butanone by viable cell suspensions ([1]; 8 μmoles of 2-butanone added): Some enzymatic degradation; also recorded: slowly disappeared
- inhibition of production of 2-butanone from 2-butanol by cell suspensions [1]: No product (2-butanone) inhibition was observed; also recorded: did not inhibit
- inhibition of SADH activity [3]: inhibited
- 2-Butanone Produced ([5]; Experiment 2: 20 min., gas chromatographically): 520 nmol

Compound: N[C@@H](CCC(=O)N[C@@H](CS)C(=O)NCC(=O)O)C(=O)O [GSH, glutathione]
- inhibition of purified yeast secondary alcohol dehydrogenase activity [4]: strongly inhibited
- effectiveness as cofactor for oxidation of 2-butanol / C3-C6 secondary alcohols [6]: not effective

Compound: NC(=O)c1ccc[n+]([C@@H]2O[C@H](COP(=O)([O-])OP(=O)(O)OC[C@H]3O[C@@H](n4cnc5c(N)ncnc54)[C@H](O)[C@@H]3O)[C@@H](O)[C@H]2O)c1 [NAD, Nicotinamide adenine dinucleotide, reference compound]
- ability to act as electron acceptor/carrier for the purified enzyme [7]: required
- NAD Consumed ([5]; Experiment 1: 10 min.): 270 nmol
- NAD Consumed ([5]; Experiment 2: 20 min.): 540 nmol
- effectiveness as cofactor for oxidation of 2-butanol / C3-C6 secondary alcohols [6]: required

Compound: O=S(=O)([O-])[O-].[Cu+2] [cupric sulfate]
- inhibition of purified yeast secondary alcohol dehydrogenase activity [4]: inhibited

Compound: c1c[nH]cn1 [imidiazole]
- inhibition of purified yeast secondary alcohol dehydrogenase activity [4]: strongly inhibited

Compound: N#C[S][Hg][S]C#N [mercuric thiocyanate]
- inhibition of purified yeast secondary alcohol dehydrogenase activity [4]: inhibited

Compound: CCCCCC [n-Hexane, n-hexane]
- Conversion Rates, n-alkane to corresponding methyl ketone [8]: 0.09 μmoles/hr/mg protein
- Conversion Rates, n-alkane to corresponding methyl ketone [9]: 0.02 μmoles/hr/mg protein
- Conversion Rates, n-alkane to corresponding methyl ketone [10]: 0.05 μmoles/hr/mg protein
- Conversion Rates, n-alkane to corresponding methyl ketone [11]: 0.04 μmoles/hr/mg protein
- Conversion Rates, n-alkane to corresponding methyl ketone [12]: 0.09 μmoles/hr/mg protein
- Conversion Rates, n-alkane to corresponding methyl ketone [13]: 0.07 μmoles/hr/mg protein
- Conversion Rate, n-alkane to corresponding secondary alcohol [14]: 0.01 μmoles/hr/^5 mg. protein
- Conversion Rate, n-alkane to corresponding secondary alcohol [15]: 0.01 μmoles/hr/^5 mg. protein
- Conversion Rate, n-alkane to corresponding secondary alcohol [16]: 0.007 μmoles/hr/^5 mg. protein

Compound: O=C(O)c1cc[c]([Hg+])cc1.[OH-] [p-hydroxymercuribenzoate]
- % inhibition of SADH activity [3]: 100%
- inhibition of purified yeast secondary alcohol dehydrogenase activity [4]: strongly inhibited

Compound: C[n+]1c2ccccc2nc2ccccc21 [phenazine methosulfate, reference compound]
- ability to act as electron acceptor/carrier for the purified enzyme [7]: could not act as electron carrier
- effectiveness as cofactor for oxidation of 2-butanol / C3-C6 secondary alcohols [6]: not effective

Compound: O=[N+]([O-])[O-].[Ag+] [silver nitrate]
- inhibition of purified yeast secondary alcohol dehydrogenase activity [4]: inhibited
